Data published in patent publication US6488933B2, “Preparations for the treatment of T cell mediated diseases” (Yeda Research and Development Co. Ltd., priority 1995, dated 2002).

Columns and labels:
[1] = test system: IDDM; details: mice, subcutaneously (sc) in an oil vehicle (IFA); cited from earlier work
[2] = test system: NOD mice; experiment: Antibody isotypes induced by p277(Val^6-Val^11) therapy, isotype ELISA (Example 3); format: in vivo, mouse; details: NOD mice 3 months old, treated in oil, FIG. 2
Method: The sera of individual mice were assayed for the isotypes of their antibodies to p277(Val6-Val^11) after treatment (12-15 mice per group). The antibody isotypes were detected using an ELISA assay with isotype-specific developing antibody reagents (Southern Biotechnology Associates, Birmingham, Ala.). […] The columns in each experiment show results from equal numbers of mice; an apparent reduction in numbers of circles is caused by superimposition.

[3] = test system: autoimmune T cells; experiment: p277(Val^6-Val^11)-peptide treatment: spontaneous T-cell responses and autoantibodies (summary statement); format: in vivo, mouse; details: peptide in an appropriate carrier
[4] = test system: T cells reactive to the p277(Val^6-Val^11); experiment: Cytokine profile of spleen cells of treated NOD mice, cytokine ELISA (Example 4); format: in vivo, mouse; details: spleen cells 5 weeks after treatment
Description: Concanavalin A (ConA), a T-cell mitogen, was used to activate total splenic T-cells as a control.
Five weeks later, the spleens of the mice were removed and the spleen cells were pooled. […] The presence of the cytokines in the culture supernatants was quantitated by ELISA, using Pharmingen paired antibodies according to the Pharmingen cytokine ELISA protocol. Pharmingen recombinant mouse cytokines were used as standards for calibration curves. Briefly, flat-bottom 96-well microtiter plates were coated with rat anti-mouse cytokine mAbs for 18 h at 4° C., and the culture supernatants or recombinant mouse cytokines were added for 18 h at 4° C. The plates were washed, and biotinylated rat anti-mouse cytokine mAbs were added for 45 min at room temperature, then extensively washed, and avidin-alkaline phosphatase was added. The plates were washed, a chromogen substrate (p-nitrophenylphosphate) was added and samples were read at 405 nm in an ELISA reader. The concentrations of cytokines are shown as the OD readings. *P<0.01.

For “p12: human hsp60 positions 166-185: EEIAQVATISANGDKEIGNI”, the “Peptide therapy for treatment of IDDM” value [1] is listed as “effective”.

For “p32: human hsp60 positions 466-485: EIIKRTLKIPAMTIAXNAGV (EIIKRTLKIPAMTIAKNAGV)”, the “Peptide therapy for treatment of IDDM” value [1] is given as “effective”.

In the case of “p277(Val^6-Val^11): SEQ ID NO 4, hsp60 437-460 with C-442 and C-447 changed to V: VLGGGVALLRVIPALDSLTPANED”, the “TH1-type IgG2a antibodies” value [2] is reported as “no TH1-type IgG2a antibodies induced”, the “isotypes of the anti-p277 antibodies developing after treatment” value [2] is reported as “exclusively of the IgG1 and IgG2b classes” and the “production of autoantibodies to hsp60, to GAD and to insulin” value [3] is reported as “abolished”. The “spontaneous T-cell proliferative responses to epitopes of both hsp60 and GAD” value [3] was “down-regulated”, the “spontaneous T-cell response of the treated mice to a bacterial hsp60 peptide” value [3] was “remained in the TH1 mode” and the “IL-2 cytokine response to ConA” value ([4]; 24 h incubation with Con A, FIG. 3B) was “maintained”. For the same substance, the “IL-2 secretion in response to incubation with peptide p277(Val^6-Val^11)” value ([4]; 24 h incubation, vs control mice (PBS in Intralipid), P<0.01, FIG. 3A) was “significantly less”, the “IFNγ cytokine response to ConA” value ([4]; 48 h incubation with Con A, FIG. 3B) was “maintained” and the “IFNγ secretion in response to incubation with peptide p277(Val^6-Val^11)” value ([4]; 48 h incubation, vs control mice (PBS in Intralipid), P<0.01, FIG. 3A) was “significantly less”.

For “p277: human hsp60 positions 437-460: VLGGGCALLRCIPALDSLTPANED”, the “Peptide therapy for treatment of IDDM” value [1] is given as “effective”.
